We go through 19 compounds from the supplement of paper PMC8967900.
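Also: ALL cell lines in 384-well plates, five doses spanning 10,000-fold, each plate scaled between vehicle and 100 µmol/L benzalkonium chloride controls, sDSS an adapted area-under-curve metric.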

One test concerns MOLT-4. The experiment in a line: selective drug sensitivity score (sDSS, relative to normal bone marrow) (sDSS (score)); higher = more potent and effective on the cell line relative to normal bone marrow cells. The settings on record: 72 h.
Turning to `C[C@@H]1CN(CC(=O)Nc2ccc3c(c2)Cc2cccc(-c4cc(=O)cc(N5CCOCC5)o4)c2S3)C[C@H](C)O1` (top concentration 25000 nM), the “selective drug sensitivity score” value was -0.08.

As to `COc1ccc2[nH]cc(/C=C3\C(=O)Nc4ccc(NC(=O)CCN5CCCCC5)cc43)c2c1` (top concentration 50000 nM), the “selective drug sensitivity score” value is -1.12.

On to `Cc1nn(C)c(COc2ccc(N3CCN(S(=O)(=O)N(C)C)CC3)cc2)c1-c1cccc2c(CCCOc3cccc4ccccc34)c(C(=O)O)n(CCN3CCOCC3)c12` (top concentration 50000 nM), for which the “selective drug sensitivity score” value turned out to be 6.56.

With `C[C@H](Nc1ncnc2[nH]cnc12)c1cc2ccc(F)cc2nc1-c1ccccn1` [AMG319] (top concentration 1000 nM), the “selective drug sensitivity score” value was -1.42.

Take `C=CCn1c(=O)c2cnc(Nc3ccc(N4CCN(C)CC4)cc3)nc2n1-c1cccc(C(C)(C)O)n1` [AZD1775] (top concentration 10000 nM): the “selective drug sensitivity score” value was determined as 14.6.

On to `NC(=O)Nc1cc(-c2cccc(F)c2)sc1C(=O)N[C@H]1CCCNC1` [AZD7762] (top concentration 1000 nM), for which the “selective drug sensitivity score” value was -1.3.

Consider `Cc1cc([C@@H](C)Nc2ccccc2C(=O)O)c2nc(N3CCOCC3)cc(=O)n2c1` [AZD-6482] (top concentration 2500 nM), for which the “selective drug sensitivity score” value is 1.52.

`CN(C)Cc1c(C(=O)NCCOc2ccc(C(=O)NO)cc2)oc2ccccc12` [Abexinostat] (top concentration 10000 nM): the “selective drug sensitivity score” value was 3.76.

Turning to `S=C(NCc1ccc2c(c1)OCO2)N1CCN(c2ncnc3c2oc2ccccc23)CC1` [Amuvatinib] (top concentration 10000 nM), the “selective drug sensitivity score” value is 4.66.

Turning to `CC(=O)OC[C@H]1O[C@@H]([S-])[C@H](OC(C)=O)[C@@H](OC(C)=O)[C@@H]1OC(C)=O.CCP(CC)CC.[Au+]` [Auranofin] (top concentration 2500 nM), the “selective drug sensitivity score” value is -0.46.

For a further test, the system named is NALM-16. Described as above. The settings on record: 72 h.
On to `Cc1c(-c2ccc(N3CCc4cccc(C(=O)Nc5nc6ccccc6s5)c4C3)nc2C(=O)O)cnn1CC12CC3CC(CC(C3)C1)C2` (top concentration 1000 nM), for which the “selective drug sensitivity score” value was -2.26.

For the compound `O=C(NOC[C@H](O)CO)c1ccc(F)c(F)c1Nc1ccc(I)cc1F` (top concentration 1000 nM), the “selective drug sensitivity score” value stood at 2.74.

As to `CO[C@@H](C)Cn1c(=O)n(C)c2cnc3ccc(-c4cncc(C(C)(C)O)c4)cc3c21` (top concentration 2500 nM), the “selective drug sensitivity score” value was -0.52.

Consider `Cc1cccc(CC(=O)N2CCc3c2ccc(-c2cn(C)c4ncnc(N)c24)c3F)n1` (top concentration 2500 nM), for which the “selective drug sensitivity score” value was -0.68.

For the compound `CNC(=O)c1ccccc1Nc1nc(Nc2ccc3c(c2OC)CCC[C@H](N2CCN(CCO)CC2)C3)ncc1Cl` (top concentration 5000 nM), the “selective drug sensitivity score” value is -2.44.

Turning to `COc1cc2ncnc(Oc3cccc(NC(=O)Nc4cc(C(C)(C)C(F)(F)F)on4)c3)c2cc1OC` (top concentration 10000 nM), the “selective drug sensitivity score” value turned out to be 0.

Turning to `C[C@@H](Oc1cc(-n2cnc3ccc(CN4CCN(C)CC4)cc32)sc1C(N)=O)c1ccccc1C(F)(F)F` (top concentration 10000 nM), the “selective drug sensitivity score” value turned out to be 17.4.

Take `Nc1nccc(-c2c(-c3ccc(F)cc3)ncn2C2CCCCC2)n1` (top concentration 10000 nM): the “selective drug sensitivity score” value turned out to be 0.9.

`O=C(O)c1ccc(-c2c[nH]c3ncc(-c4ccccc4)cc23)cc1C1CCCC1` (top concentration 10000 nM): the “selective drug sensitivity score” value was -1.44.

In the case of `C[C@@H]1CN(CC(=O)Nc2ccc3c(c2)Cc2cccc(-c4cc(=O)cc(N5CCOCC5)o4)c2S3)C[C@H](C)O1` (top concentration 25000 nM), the “selective drug sensitivity score” value was -2.18.

Consider `COc1ccc2[nH]cc(/C=C3\C(=O)Nc4ccc(NC(=O)CCN5CCCCC5)cc43)c2c1` (top concentration 50000 nM), for which the “selective drug sensitivity score” value is -2.42.

Regarding `Cc1nn(C)c(COc2ccc(N3CCN(S(=O)(=O)N(C)C)CC3)cc2)c1-c1cccc2c(CCCOc3cccc4ccccc34)c(C(=O)O)n(CCN3CCOCC3)c12` (top concentration 50000 nM), the “selective drug sensitivity score” value stood at 4.36.

For the compound `C[C@H](Nc1ncnc2[nH]cnc12)c1cc2ccc(F)cc2nc1-c1ccccn1` [AMG319] (top concentration 1000 nM), the “selective drug sensitivity score” value was -1.42.

For `C=CCn1c(=O)c2cnc(Nc3ccc(N4CCN(C)CC4)cc3)nc2n1-c1cccc(C(C)(C)O)n1` [AZD1775] (top concentration 10000 nM), the “selective drug sensitivity score” value came to 6.64.

Consider `NC(=O)Nc1cc(-c2cccc(F)c2)sc1C(=O)N[C@H]1CCCNC1` [AZD7762] (top concentration 1000 nM), for which the “selective drug sensitivity score” value was 0.5.

Consider `Cc1cc([C@@H](C)Nc2ccccc2C(=O)O)c2nc(N3CCOCC3)cc(=O)n2c1` [AZD-6482] (top concentration 2500 nM), for which the “selective drug sensitivity score” value came to 0.42.

Regarding `CN(C)Cc1c(C(=O)NCCOc2ccc(C(=O)NO)cc2)oc2ccccc12` [Abexinostat] (top concentration 10000 nM), the “selective drug sensitivity score” value was determined as 0.56.

Consider `S=C(NCc1ccc2c(c1)OCO2)N1CCN(c2ncnc3c2oc2ccccc23)CC1` [Amuvatinib] (top concentration 10000 nM), for which the “selective drug sensitivity score” value worked out at 0.86.

As for `CC(=O)OC[C@H]1O[C@@H]([S-])[C@H](OC(C)=O)[C@@H](OC(C)=O)[C@@H]1OC(C)=O.CCP(CC)CC.[Au+]` [Auranofin] (top concentration 2500 nM), the “selective drug sensitivity score” value is -0.56.

In the next test the test system is NALM-6. Described as above. The settings on record: 72 h.
Take `Cc1c(-c2ccc(N3CCc4cccc(C(=O)Nc5nc6ccccc6s5)c4C3)nc2C(=O)O)cnn1CC12CC3CC(CC(C3)C1)C2` (top concentration 1000 nM): the “selective drug sensitivity score” value came out at 5.84.

Regarding `O=C(NOC[C@H](O)CO)c1ccc(F)c(F)c1Nc1ccc(I)cc1F` (top concentration 1000 nM), the “selective drug sensitivity score” value is 7.54.

In the case of `CO[C@@H](C)Cn1c(=O)n(C)c2cnc3ccc(-c4cncc(C(C)(C)O)c4)cc3c21` (top concentration 2500 nM), the “selective drug sensitivity score” value worked out at 3.68.

Regarding `Cc1cccc(CC(=O)N2CCc3c2ccc(-c2cn(C)c4ncnc(N)c24)c3F)n1` (top concentration 2500 nM), the “selective drug sensitivity score” value was 4.32.

Consider `CNC(=O)c1ccccc1Nc1nc(Nc2ccc3c(c2OC)CCC[C@H](N2CCN(CCO)CC2)C3)ncc1Cl` (top concentration 5000 nM), for which the “selective drug sensitivity score” value is -1.04.

Consider `COc1cc2ncnc(Oc3cccc(NC(=O)Nc4cc(C(C)(C)C(F)(F)F)on4)c3)c2cc1OC` (top concentration 10000 nM), for which the “selective drug sensitivity score” value was 0.

For the compound `C[C@@H](Oc1cc(-n2cnc3ccc(CN4CCN(C)CC4)cc32)sc1C(N)=O)c1ccccc1C(F)(F)F` (top concentration 10000 nM), the “selective drug sensitivity score” value worked out at 15.8.

As to `Nc1nccc(-c2c(-c3ccc(F)cc3)ncn2C2CCCCC2)n1` (top concentration 10000 nM), the “selective drug sensitivity score” value worked out at 0.

As to `O=C(O)c1ccc(-c2c[nH]c3ncc(-c4ccccc4)cc23)cc1C1CCCC1` (top concentration 10000 nM), the “selective drug sensitivity score” value was -1.44.

As to `C[C@@H]1CN(CC(=O)Nc2ccc3c(c2)Cc2cccc(-c4cc(=O)cc(N5CCOCC5)o4)c2S3)C[C@H](C)O1` (top concentration 25000 nM), the “selective drug sensitivity score” value is 2.92.

Regarding `COc1ccc2[nH]cc(/C=C3\C(=O)Nc4ccc(NC(=O)CCN5CCCCC5)cc43)c2c1` (top concentration 50000 nM), the “selective drug sensitivity score” value was -2.12.

As to `Cc1nn(C)c(COc2ccc(N3CCN(S(=O)(=O)N(C)C)CC3)cc2)c1-c1cccc2c(CCCOc3cccc4ccccc34)c(C(=O)O)n(CCN3CCOCC3)c12` (top concentration 50000 nM), the “selective drug sensitivity score” value turned out to be 4.26.

On to `C[C@H](Nc1ncnc2[nH]cnc12)c1cc2ccc(F)cc2nc1-c1ccccn1` [AMG319] (top concentration 1000 nM), for which the “selective drug sensitivity score” value was 3.68.

In the case of `C=CCn1c(=O)c2cnc(Nc3ccc(N4CCN(C)CC4)cc3)nc2n1-c1cccc(C(C)(C)O)n1` [AZD1775] (top concentration 10000 nM), the “selective drug sensitivity score” value turned out to be 11.

For the compound `NC(=O)Nc1cc(-c2cccc(F)c2)sc1C(=O)N[C@H]1CCCNC1` [AZD7762] (top concentration 1000 nM), the “selective drug sensitivity score” value was determined as 0.6.

`Cc1cc([C@@H](C)Nc2ccccc2C(=O)O)c2nc(N3CCOCC3)cc(=O)n2c1` [AZD-6482] (top concentration 2500 nM): the “selective drug sensitivity score” value came to 5.62.

Take `CN(C)Cc1c(C(=O)NCCOc2ccc(C(=O)NO)cc2)oc2ccccc12` [Abexinostat] (top concentration 10000 nM): the “selective drug sensitivity score” value was 2.76.

On to `S=C(NCc1ccc2c(c1)OCO2)N1CCN(c2ncnc3c2oc2ccccc23)CC1` [Amuvatinib] (top concentration 10000 nM), for which the “selective drug sensitivity score” value was 3.86.

`CC(=O)OC[C@H]1O[C@@H]([S-])[C@H](OC(C)=O)[C@@H](OC(C)=O)[C@@H]1OC(C)=O.CCP(CC)CC.[Au+]` [Auranofin] (top concentration 2500 nM): the “selective drug sensitivity score” value was 5.34.
